Columns and labels:
[1] = tested on: 5-Hydroxytryptamine receptors; assay: Competitive displacement of Clozapine-a-2-NB590 by unmodified scaffold (NanoBRET); format: binding, human; conditions: tracer Clozapine-a-2-NB590
Excerpt: (§1) Finally, we opted to compare the machine learning predictions for the 17 scaffolds to the empirical NanoBRET evaluations across 36 GPCR families investigated by both strategies (Figure 7). The highest correlation between model-predicted and NanoBRET-confirmed interactions was found using minimal thresholds of ≥4% classification probability and ≥1.5-fold response, respectively (Figure S11). These thresholds provided the best balance between model accuracy and a low percentage of false predictions. Accordingly, machine learning predictions for all unmodified scaffolds were compiled (Figure S6) and those above the minimum 4% probability threshold were classified as positive interactions (Figure 7A). At the same time, empirical NanoBRET results for each scaffold were consolidated to include results for all relevant fluorescent tracer candidates screened at either 1 μM or 0.1 μM tracer concentrations. […] One caveat comparing model predictions to empirical NanoBRET evaluations is their use of unmodified versus fluorescently modified scaffolds, respectively. Therefore, model predictions not verified by BRET could in part be the result of fluorophore interference with binding interactions. […]

Dopamine receptors = assay: as above; format: binding, human; conditions: tracer Clozapine-a-2-NB590
Excerpt: as §1

[2] = tested on: alpha-Adrenergic receptors; assay: as above; format: binding, human; conditions: for Interaction verified via competitive displacement of tracer: tracer Clozapine-a-2-NB590, alpha-Adrenergic receptors; for NanoBRET Fold Response, other tracers/XAC (unmodified): displaced by unmodified XAC
Experimental: Finally, we opted to compare the machine learning predictions for the 17 scaffolds to the empirical NanoBRET evaluations across 36 GPCR families investigated by both strategies (Figure 7). […] At the same time, empirical NanoBRET results for each scaffold were consolidated to include results for all relevant fluorescent tracer candidates screened at either 1 μM or 0.1 μM tracer concentrations. […] These additional verifications were incorporated to the comparative analysis and are also included in the compiled screening results (Supplementary Materials Excel spreadsheet).

OPRM1 = target: T1, OPRM1 (Homo sapiens, UniProt P35372); assay: NanoBRET screen HiBiT-OPRM1 in HEK293; format: binding; conditions: OPRM1
T1 construct: purchased Promega (in-house HiBiT-GPCR construct library, NanoBRET)
T1 sequence (P35372 whole entry): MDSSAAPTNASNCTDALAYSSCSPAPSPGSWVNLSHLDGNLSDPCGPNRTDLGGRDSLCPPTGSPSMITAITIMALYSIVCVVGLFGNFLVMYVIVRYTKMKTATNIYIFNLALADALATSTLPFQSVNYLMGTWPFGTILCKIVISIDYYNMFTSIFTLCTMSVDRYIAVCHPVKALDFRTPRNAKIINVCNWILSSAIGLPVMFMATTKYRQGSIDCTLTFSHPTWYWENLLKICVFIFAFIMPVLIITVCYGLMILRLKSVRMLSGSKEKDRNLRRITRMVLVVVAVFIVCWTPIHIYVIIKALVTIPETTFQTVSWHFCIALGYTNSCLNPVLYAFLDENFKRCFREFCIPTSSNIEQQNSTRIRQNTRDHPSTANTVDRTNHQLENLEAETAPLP
Experimental: (§2) Each tracer candidate was screened across the entire library of HiBiT-GPCR constructs using NanoBRET as the detection modality. As depicted in Figure 4A, the specificity of interactions was evaluated through decrease in BRET due to competitive displacement of a bound tracer by excess parental compound. Each tracer was analyzed for binding to each HiBiT-GPCR fusion in the absence and in the presence of competing parental compound. Briefly, HEK293 cells were transfected with HiBiT-GPCR constructs diluted into promoterless DNA to reduce expression and maximize translocation to the cell surface. Each tracer candidate was then screened at concentrations of 1 μM and 0.1 μM across cells expressing these fusions. Cells were treated for 1.5 h with tracer either alone or in the presence of 20 μM competing parental compound (i.e., control). BRET was measured upon addition of purified LgBiT and subsequent complementation with HiBiT genetically fused to a GPCR. The specificity of interactions was assessed through a decrease in BRET signal due to competitive displacement of the bound tracer. To further gauge the robustness of these interactions, the fold response over the control (i.e., BRETtracer/BRETcontrol) was calculated. We chose a 1.5-fold response, which translates to ≥7-fold signal over noise as the minimal threshold required to score an interaction as positive.
(§3) HiBiT-GPCR DNA constructs were diluted in 10 mM Tris pH 8 to a final concentration of 0.01 μg/μL, arrayed in 96-well plates and stored at −20 °C. For transfection, HEK293 cells were suspended in Opti-MEM (without phenol red) supplemented with 2% fetal bovine serum (Seradigm) and 100 units/mL penicillin–streptomycin (Gibco) at a final concentration of 220,000 cells/mL and dispensed into white 96-well plates at 90 μL/well. Subsequent transfections and screens were carried using an Agilent Bravo Automated Liquid Handling Platform. First, the 96-well HiBiT DNA arrays were diluted 25-fold in Opti-MEM (without serum or phenol red) to a final concentration of 0.0004 μg/μL and 20 μL of the diluted DNAs were transferred into new 96-well plates. Next, promoterless carrier DNA (1 μg/μL) was diluted 25-fold (0.04 μg/μL) and then dispensed into the diluted arrays at 20 μL/well. Following brief mixing, Viafect transfection reagent (Promega) diluted 16-fold into Opti-MEM was dispensed into the plates at 40 μL/well. After mixing by pipetting, plates were incubated for 10 min on the pipetting station deck. The DNA-transfection reagent complexes were then added to plates containing cells. To facilitate the screen, 10 μL of DNA-transfection reagent complexes were added in duplicates to the top 4 and bottom 4 rows, resulting in two identical 48-well arrays per plate. Plates with transfected cells were incubated for 18–20 h at 37 °C/5% CO2. A screen of each tracer across the entire library using two different concentrations requires duplicate plates of transfected cells. Depending on the number of tracers being screened, transfections can be scaled up using the same ratios. The next day, for each tracer, four 20× screening solutions in tracer dilution buffer (Promega) were prepared: two duplicates at final concentration of 20 μM and two duplicates at a final concentration of 2 μM. […] The four resulting solutions were diluted 4-fold in Opti-MEM without serum or phenol red to generate 5× solutions (5 µM and 0.5 µM tracer +/− 100 μM competing compound). To screen the library, a BioTek MultiFlo FX liquid dispenser was used to dispense 22.5 µL of tracer solution to the top 4 rows and 22.5 µL tracer + competing compound solution to the 4 bottom rows. Plates were briefly mixed on an orbital shaker and incubated for 1.5 h at room temperature. […] Plates were briefly mixed on an orbital shaker and incubated for 15 min to allow complementation.

ADRB1 = target: T2, ADRB1 (Homo sapiens, UniProt P08588); assay: NanoBRET screen HiBiT-ADRB1 in HEK293; format: binding; conditions: ADRB1
T2 construct: purchased Promega (in-house HiBiT-GPCR construct library, NanoBRET)
T2 sequence (P08588 whole entry): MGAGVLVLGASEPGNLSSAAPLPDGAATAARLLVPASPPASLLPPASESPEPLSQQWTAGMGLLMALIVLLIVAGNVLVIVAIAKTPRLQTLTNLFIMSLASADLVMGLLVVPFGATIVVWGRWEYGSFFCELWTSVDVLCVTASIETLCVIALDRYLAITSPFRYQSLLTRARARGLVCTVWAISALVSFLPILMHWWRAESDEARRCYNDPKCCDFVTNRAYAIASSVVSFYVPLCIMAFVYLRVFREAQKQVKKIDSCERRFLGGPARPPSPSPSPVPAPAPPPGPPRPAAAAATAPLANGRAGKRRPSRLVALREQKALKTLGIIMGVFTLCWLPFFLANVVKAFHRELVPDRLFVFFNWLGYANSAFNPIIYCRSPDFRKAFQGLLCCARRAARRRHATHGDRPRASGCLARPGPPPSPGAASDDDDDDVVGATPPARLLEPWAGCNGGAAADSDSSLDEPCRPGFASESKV

OPRK1 = target: T3, OPRK1 (Homo sapiens, UniProt P41145); assay: NanoBRET screen HiBiT-OPRK1 in HEK293; format: binding; conditions: OPRK1
T3 construct: purchased Promega (in-house HiBiT-GPCR construct library, NanoBRET)
T3 sequence (P41145 whole entry): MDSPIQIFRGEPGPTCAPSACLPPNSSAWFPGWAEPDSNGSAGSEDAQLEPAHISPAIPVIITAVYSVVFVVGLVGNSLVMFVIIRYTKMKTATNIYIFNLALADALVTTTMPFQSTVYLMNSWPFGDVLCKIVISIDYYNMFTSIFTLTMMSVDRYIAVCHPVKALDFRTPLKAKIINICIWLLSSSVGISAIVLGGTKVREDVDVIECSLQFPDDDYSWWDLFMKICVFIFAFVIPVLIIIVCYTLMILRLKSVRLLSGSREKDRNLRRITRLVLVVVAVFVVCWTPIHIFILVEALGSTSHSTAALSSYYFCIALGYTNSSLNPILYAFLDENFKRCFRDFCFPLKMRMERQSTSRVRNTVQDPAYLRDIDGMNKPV
Experimental: as §2, with “positive. […]. Below we highlight the screening results obtained for our exemplary fluorescent tracers based on Clozapine, Amitriptyline and AZD1283.” for “positive.”
HiBiT-GPCR DNA constructs were diluted in 10 mM Tris pH 8 to a final concentration of 0.01 μg/μL, arrayed in 96-well plates and stored at −20 °C. For transfection, HEK293 cells were suspended in Opti-MEM (without phenol red) supplemented with 2% fetal bovine serum (Seradigm) and 100 units/mL penicillin–streptomycin (Gibco) at a final concentration of 220,000 cells/mL and dispensed into white 96-well plates at 90 μL/well. Subsequent transfections and screens were carried using an Agilent Bravo Automated Liquid Handling Platform. First, the 96-well HiBiT DNA arrays were diluted 25-fold in Opti-MEM (without serum or phenol red) to a final concentration of 0.0004 μg/μL and 20 μL of the diluted DNAs were transferred into new 96-well plates. Next, promoterless carrier DNA (1 μg/μL) was diluted 25-fold (0.04 μg/μL) and then dispensed into the diluted arrays at 20 μL/well. Following brief mixing, Viafect transfection reagent (Promega) diluted 16-fold into Opti-MEM was dispensed into the plates at 40 μL/well. After mixing by pipetting, plates were incubated for 10 min on the pipetting station deck. The DNA-transfection reagent complexes were then added to plates containing cells. To facilitate the screen, 10 μL of DNA-transfection reagent complexes were added in duplicates to the top 4 and bottom 4 rows, resulting in two identical 48-well arrays per plate. Plates with transfected cells were incubated for 18–20 h at 37 °C/5% CO2. A screen of each tracer across the entire library using two different concentrations requires duplicate plates of transfected cells. Depending on the number of tracers being screened, transfections can be scaled up using the same ratios. The next day, for each tracer, four 20× screening solutions in tracer dilution buffer (Promega) were prepared: two duplicates at final concentration of 20 μM and two duplicates at a final concentration of 2 μM. A competing unmodified compound was added to one of each duplicate at a final concentration of 400 μM. The four resulting solutions were diluted 4-fold in Opti-MEM without serum or phenol red to generate 5× solutions (5 µM and 0.5 µM tracer +/− 100 μM competing compound). To screen the library, a BioTek MultiFlo FX liquid dispenser was used to dispense 22.5 µL of tracer solution to the top 4 rows and 22.5 µL tracer + competing compound solution to the 4 bottom rows. Plates were briefly mixed on an orbital shaker and incubated for 1.5 h at room temperature. […]

OPRD1 = target: T4, OPRD1 (Homo sapiens, UniProt P41143); assay: NanoBRET screen HiBiT-OPRD1 in HEK293; format: binding; conditions: OPRD1
T4 construct: purchased Promega (in-house HiBiT-GPCR construct library, NanoBRET)
T4 sequence (P41143 whole entry): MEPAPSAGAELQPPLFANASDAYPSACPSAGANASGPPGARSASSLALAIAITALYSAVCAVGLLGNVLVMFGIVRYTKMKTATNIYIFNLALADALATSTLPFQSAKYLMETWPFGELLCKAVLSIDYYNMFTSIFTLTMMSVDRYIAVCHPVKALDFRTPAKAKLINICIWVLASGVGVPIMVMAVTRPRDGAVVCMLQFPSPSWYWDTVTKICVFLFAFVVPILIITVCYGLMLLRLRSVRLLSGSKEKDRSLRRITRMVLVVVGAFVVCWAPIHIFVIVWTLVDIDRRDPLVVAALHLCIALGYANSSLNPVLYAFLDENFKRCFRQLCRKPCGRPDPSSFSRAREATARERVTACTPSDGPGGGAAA
Experimental: as §2, §3

ADRB3 = target: T5, ADRB3 (Homo sapiens, UniProt P13945); assay: NanoBRET screen HiBiT-ADRB3 in HEK293; format: binding; conditions: ADRB3
T5 construct: purchased Promega (in-house HiBiT-GPCR construct library, NanoBRET)
T5 sequence (P13945 whole entry): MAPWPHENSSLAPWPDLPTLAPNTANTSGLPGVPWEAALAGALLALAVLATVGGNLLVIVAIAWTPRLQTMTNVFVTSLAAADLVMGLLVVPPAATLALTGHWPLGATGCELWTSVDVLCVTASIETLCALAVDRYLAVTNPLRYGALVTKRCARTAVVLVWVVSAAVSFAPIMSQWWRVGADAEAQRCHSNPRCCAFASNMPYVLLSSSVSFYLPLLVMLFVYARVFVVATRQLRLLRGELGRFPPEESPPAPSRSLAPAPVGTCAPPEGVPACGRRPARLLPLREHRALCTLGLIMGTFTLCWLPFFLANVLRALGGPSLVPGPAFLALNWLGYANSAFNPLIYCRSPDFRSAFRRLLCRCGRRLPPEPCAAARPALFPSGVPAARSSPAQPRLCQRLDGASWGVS
Experimental: as §2, §3

ADRB2 = target: T6, ADRB2 (Homo sapiens, UniProt P07550); assay: NanoBRET screen HiBiT-ADRB2 in HEK293; format: binding; conditions: ADRB2, other tracers/Quetiapine (unmodified)
T6 construct: purchased Promega (in-house HiBiT-GPCR construct library, NanoBRET)
T6 sequence (P07550 whole entry): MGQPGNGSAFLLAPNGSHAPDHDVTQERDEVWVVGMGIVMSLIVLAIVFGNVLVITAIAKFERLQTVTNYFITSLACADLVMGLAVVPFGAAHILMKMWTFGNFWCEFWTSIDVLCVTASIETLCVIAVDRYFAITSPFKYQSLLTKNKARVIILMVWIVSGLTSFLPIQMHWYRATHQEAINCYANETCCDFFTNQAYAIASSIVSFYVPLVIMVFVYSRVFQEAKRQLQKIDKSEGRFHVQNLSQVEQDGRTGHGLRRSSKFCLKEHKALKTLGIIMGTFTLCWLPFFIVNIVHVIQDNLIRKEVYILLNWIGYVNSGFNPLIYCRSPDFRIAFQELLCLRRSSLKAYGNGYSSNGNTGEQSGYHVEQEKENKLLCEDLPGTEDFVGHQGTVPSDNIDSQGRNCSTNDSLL
Experimental: as §2, §3

[3] = other tracers/Tolterodine (unmodified), 0.1μM
[4] = other tracers/Tolterodine (unmodified), 1μM
[5] = other tracers/Quetiapine (unmodified), 0.1μM
[6] = other tracers/Quetiapine (unmodified), 1μM

In the case of N#CNC(=NCCCOc1cccc(CN2CCCCC2)c1)NCCNC(=O)c1ccc(N)cc1 [Aminopotentidine], the “Interaction verified via competitive displacement of tracer” value [1] is reported as “verify additional interactions”, the “Interaction verified via competitive displacement of tracer” value (Dopamine receptors) is reported as “verify additional interactions” and the “Interaction verified via competitive displacement of tracer” value [2] is reported as “verify additional interactions”.
In the case of Cc1ccc(O)c([C@H](CCN(C(C)C)C(C)C)c2ccccc2)c1 [Tolterodine (unmodified)], the “NanoBRET Fold Response” value (OPRM1; [3]) is reported as 0.97, the “NanoBRET Fold Response” value (ADRB1; [3]) is reported as 0.99 and the “NanoBRET Fold Response” value (ADRB1; [4]) is reported as 1.01. The “NanoBRET Fold Response” value (OPRK1; [3]) was 0.99, the “NanoBRET Fold Response” value (OPRK1; [4]) was 1.00 and the “NanoBRET Fold Response” value (OPRD1; [4]) was 0.91. For the same compound, the “NanoBRET Fold Response” value (ADRB3; [3]) was 1.01.
CCCn1c(=O)c2[nH]c(-c3ccc(OCC(=O)NCCN)cc3)nc2n(CCC)c1=O [XAC, Xanthine amine congener, reference compound] was tested, and the “Interaction verified via competitive displacement of tracer” value [2] was “additional interactions”.
With CCCn1c(=O)c2[nH]c(-c3ccc(OCC(=O)NCCN)cc3)nc2n(CCC)c1=O [XAC (unmodified)] the “NanoBRET Fold Response, other tracers/XAC (unmodified)” value ([2]; ADRA1A, other tracer 0.1μM) was 3.51, the “NanoBRET Fold Response, other tracers/XAC (unmodified)” value ([2]; ADRA1A, other tracer 1μM) was 1.56 and the “NanoBRET Fold Response, other tracers/XAC (unmodified)” value ([2]; ADRA1B, other tracer 0.1μM) was 1.61. For the same compound, the “NanoBRET Fold Response, other tracers/XAC (unmodified)” value ([2]; ADRA1B, other tracer 1μM) was 1.32, the “NanoBRET Fold Response, other tracers/XAC (unmodified)” value ([2]; ADRA2A, other tracer 0.1μM) was 1.12 and the “NanoBRET Fold Response, other tracers/XAC (unmodified)” value ([2]; ADRA2A, other tracer 1μM) was 1.14. For the same compound, the “NanoBRET Fold Response, other tracers/XAC (unmodified)” value ([2]; ADRA2B, other tracer 0.1μM) was 4.34, the “NanoBRET Fold Response, other tracers/XAC (unmodified)” value ([2]; ADRA2B, other tracer 1μM) was 1.57 and the “NanoBRET Fold Response, other tracers/XAC (unmodified)” value ([2]; ADRA2C, other tracer 0.1μM) was 1.33.
OCCOCCN1CCN(C2=Nc3ccccc3Sc3ccccc32)CC1 [Quetiapine (unmodified)] was tested, and the “NanoBRET Fold Response” value (OPRM1; [5]) was 1.29, the “NanoBRET Fold Response” value (OPRM1; [6]) was 1.00 and the “NanoBRET Fold Response” value (ADRB1; [5]) was 1.33. For the same compound, the “NanoBRET Fold Response” value (ADRB1; [6]) was 1.09, the “NanoBRET Fold Response” value (OPRK1; [5]) was 1.76 and the “NanoBRET Fold Response” value (OPRK1; [6]) was 0.99. The “NanoBRET Fold Response” value (ADRB2; 0.1μM) was 1.07, the “NanoBRET Fold Response” value (ADRB2; 1μM) was 1.33 and the “NanoBRET Fold Response” value (OPRD1; [5]) was 1.31. For the same compound, the “NanoBRET Fold Response” value (OPRD1; [6]) was 1.06, the “NanoBRET Fold Response” value (ADRB3; [5]) was 1.11 and the “NanoBRET Fold Response” value (ADRB3; [6]) was 1.12.

— article PMC8151276, “An Integrated Approach toward NanoBRET Tracers for Analysis of GPCR Ligand Engagement” (Molecules, 2021)
